Experimental data from PMC8165439, “Chymase Dependent Pathway of Angiotensin II Generation and Rapeseed Derived Peptides for Antihypertensive Treatment of Spontaneously Hypertensive Rats” (Frontiers in Pharmacology, 2021).
Where a SMILES comes first, the peptide text is derived from it. Where no end group is shown, it is not given here.

Key:
adult SHR = details: tail cuff method, ref Kirimura et al. (2005); cited from earlier work
Text: [Kirimura et al. (2005)], studied NK3201, another chymase inhibitor. […] However, the study by [Kirimura et al. (2005)], in addition to the obvious difference in the protocol (single oral dose vs. our chronic intravenous infusion) has another limitation: the tail cuff method was used to measure blood pressure.

[1] = system: spontaneously hypertensive rats (SHR); assay: Metabolic parameters in metabolic cages during chronic treatment; assay type: in vivo, rat; details: mean ± SEM
Description: (§1) Systolic and diastolic blood pressure (SBP and DBP, respectively) and heart rate (HR) were measured in conscious unrestrained rats by telemetry technique, once a week for 24 h. 24 hour observations in metabolic cages (Tecniplast S. p.A. Buguggiate, Italy) were performed weekly. The diuresis, weight of feces, food and water intake were measured; urine and blood samples were collected on day 0, 7th and 14th, and were centrifuged at 1200 g (blood for 15 min and urine for 5 min), then the samples were stored at –80°C until analysis.
(§2) On day 0 all animals received saline (0.9% NaCl) and then, for 14 consecutive days, the substance tested. Chymostatin (CH, 2 mg/kg/day) was dissolved in DMSO and then diluted with PBS (final concentration of DMSO was 0.15%). Peptides RIY (7.5 mg/kg/day) and VWIS (12.5 mg/kg/day) were dissolved in saline (0.9% NaCl, S). The substances were administered through the femoral vein during 10 min in the volume of 0.5 ml to young SHR (infusion rate: 3 ml/h) and 1 ml to adult rats (infusion rate: 6 ml/h). Control rats received solvents (either DMSO or saline) in the same volume.
(§3) Urine volume was determined by gravimetric method. Sodium and potassium concentration in urine and plasma were measured by flame photometry (PFP7/C, Jenway Ltd, Stone, United Kingdom). Urine and plasma osmolality were measured by freezing point depression (Osmomat® 030 M, Gonotec, Berlin, Germany). These parameters were used to determine the excretion rates of total solutes (UosmV), sodium (UNaV) and potassium (UKV). Commercially available ELISA kits were used to measure nitric oxide metabolites (NOx, SunRed, Shanghai) and albumin (Albumin, ICL, Portland) concentration in urine. Excretion rate of NOx (UNOxV) and albumin (UAE) were calculated.

[2] = system: spontaneously hypertensive rats (SHR); assay: Plasma and urine parameters during chronic treatment; assay type: in vivo, rat; details: mean ± SEM
Description: as §1, §2, §3

ACE = details: ref Marczak et al. (2003); cited from earlier work
Human chymase = biological target: T1, Human chymase (Homo sapiens, UniProt P23946); details: pH 7.8
T1 sequence (P23946 22-247): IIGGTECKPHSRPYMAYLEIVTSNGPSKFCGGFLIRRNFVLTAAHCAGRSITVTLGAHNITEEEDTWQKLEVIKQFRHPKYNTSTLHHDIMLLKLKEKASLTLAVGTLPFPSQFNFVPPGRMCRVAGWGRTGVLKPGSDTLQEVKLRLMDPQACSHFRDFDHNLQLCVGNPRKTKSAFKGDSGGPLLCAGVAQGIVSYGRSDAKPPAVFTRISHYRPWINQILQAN
Description: Chymase digestion of ANG I in the presence of synthetized peptides was performed in vitro. The concentration of remaining ANG I was calculated in order to assess the ability of peptides to inhibit chymase.
Human chymase (72 units/mg protein; 259 µg protein/ml, vial volume 187 μl, Sigma) stock solution was prepared by diluting the initial sample of enzyme with Tris*HCl buffer (0.27 mM Tris*HCl, pH 7.8 and 150 mM NaCl) to obtain the final chymase concentration of 1.379 μg/ml.
Reactions (during which ANG I was converted to ANG II through removal of two C-terminal residues) were stopped at the desired times (0, 10, 20, 30, 40, 60, 80 min) by addition of 10 μl of 98% FA. […] Positive electrospray (ES+) was used as the ionization method for mass spectrometry.
The inhibitory effect of each peptide on chymase activity was expressed as remaining amount of substrate vs. time of digestion and presented as percentage ratio and calculated by the following formula [ANG It=X min/ANG It=0 min]x100% where ANG It=X min is the peak area of angiotensin I at desired time of digestion, ANG It=0 min is the peak area of angiotensin I at 0 min of digestion.

[3] = adult SHR (SHR-16), day 0 (baseline)
[4] = adult SHR (SHR-16), day 7 of daily iv CH 2, RIY 7.5, VWIS 12.5 mg/kg/day
[5] = adult SHR (SHR-16), day 7 of daily iv treatment
[6] = adult SHR (SHR-16), day 14 of daily iv CH 2, RIY 7.5, VWIS 12.5 mg/kg/day
[7] = adult SHR (SHR-16), day 14 of daily iv treatment
[8] = young SHR (SHR-6), day 0 (baseline), CH n=8-10, RIY n=5, VWIS n=5-6
[9] = young SHR (SHR-6), day 0 (baseline)
[10] = young SHR (SHR-6), day 7 of daily iv CH 2, RIY 7.5, VWIS 12.5 mg/kg/day
[11] = young SHR (SHR-6), day 7 of daily iv treatment
[12] = young SHR (SHR-6), day 14 of daily iv CH 2, RIY 7.5, VWIS 12.5 mg/kg/day
[13] = young SHR (SHR-6), day 14 of daily iv treatment

## O=CNc1cnc(-c2ccccc2)n(CC(=O)NC(Cc2ccccc2)C(=O)C(=O)CCCOc2ccccn2)c1=O (stereo not drawn) [NK3201]
Adult SHR
  blood pressure after a single oral dose: did not lower blood pressure

## CC[C@H](C)[C@H](NC(=O)[C@H](Cc1c[nH]c2ccccc12)NC(=O)[C@@H](N)C(C)C)C(=O)N[C@@H](CO)C(=O)O [VWIS, Valine-Tryptophan-Isoleucine-Serine] (H-VWIS-OH)
[1]; adult SHR (SHR-16), day 0 (baseline), CH n=8, RIY n=5-6, VWIS n=5-6
  Body weight: 304 ± 8 g
[1]; [3]
  Diuresis: 7.1 ± 1.4 µL/min
  Faeces: 11±1 g/24 h
  Food intake: 20±1 g/24 h
  Water intake: 30±1 g/24 h
[1]; [4]
  Body weight: 312 ± 11 g
[1]; [5]
  Diuresis: 7.0 ± 1.3 µL/min
  Faeces: 11±2 g/24 h
  Food intake: 22±1 g/24 h
  Water intake: 34±1 g/24 h
[1]; [6]
  Body weight: 329 ± 11 g
[1]; [7]
  Diuresis: 8.0 ± 1.8 µL/min
  Faeces: 11±1 g/24 h
  Food intake: 19±1 g/24 h
  Water intake: 32±2 g/24 h
[1]; [8]
  Body weight: 110 ± 11 g
[1]; [9]
  Diuresis: 6.3 ± 0.8 µL/min
  Faeces: 10±1 g/24 h
  Food intake: 16±1 g/24 h
  Water intake: 22±2 g/24 h
[1]; [10]
  Body weight: 145 ± 13 g
[1]; [11]
  Diuresis: 7.2 ± 0.7 µL/min
  Faeces: 13±1 g/24 h
  Food intake: 19±1 g/24 h
  Water intake: 32±7 g/24 h
[1]; [12]
  Body weight: 174 ± 13 g
[1]; [13]
  Diuresis: 8.5 ± 0.8 µL/min
  Faeces: 14±1 g/24 h
  Food intake: 20±1 g/24 h
  Water intake: 30±2 g/24 h
[2]; adult SHR (SHR-16), day 0 (baseline), CH n=5-8, RIY n=5-6, VWIS n=5-6
  Plasma osmolality: 313±1 mOsm/l
[2]; [3]
  Plasma K+ concentration: 4.20 ± 0.18 mmol/L
  Plasma Na+ concentration: 133.0 ± 0.8 mmol/L
  Potassium excretion: 0.97 ± 0.21 µmol/min
  Sodium excretion: 0.90 ± 0.18 µmol/min
  Total solute excretion: 7.52±1.54 µOsm/min
[2]; [4]
  Plasma osmolality: 308±1 mOsm/l
[2]; [5]
  Plasma K+ concentration: 3.78 ± 0.31 mmol/L
  Plasma Na+ concentration: 130.2 ± 4.5 mmol/L
  Potassium excretion: 1.26 ± 0.27 µmol/min
  Sodium excretion: 1.02 ± 0.19 µmol/min
  Total solute excretion: 9.90±2.21 µOsm/min
[2]; [6]
  Plasma osmolality: 302±2 mOsm/l
[2]; [7]
  Plasma K+ concentration: 3.96 ± 0.06 mmol/L
  Plasma Na+ concentration: 135.8 ± 4.7 mmol/L
  Potassium excretion: 0.95 ± 0.21 µmol/min
  Sodium excretion: 0.81 ± 0.16 µmol/min
  Total solute excretion: 10.42±2.06 µOsm/min
[2]; [8]
  Plasma osmolality: 295±2 mOsm/l
[2]; [9]
  Plasma K+ concentration: 4.42 ± 0.20 mmol/L
  Plasma Na+ concentration: 131.8 ± 3.0 mmol/L
  Potassium excretion: 0.73 ± 0.20 µmol/min
  Sodium excretion: 0.69 ± 0.13 µmol/min
  Total solute excretion: 5.48±1.40 µOsm/min
[2]; [10]
  Plasma osmolality: 297±1 mOsm/l
[2]; [11]
  Plasma K+ concentration: 4.45 ± 0.16 mmol/L
  Plasma Na+ concentration: 133.40 ± 5.6 mmol/L
  Potassium excretion: 1.75 ± 0.15 µmol/min
  Sodium excretion: 0.84 ± 0.13 µmol/min
  Total solute excretion: 7.11±0.95 µOsm/min
[2]; [12]
  Plasma osmolality: 293±3 mOsm/l
[2]; [13]
  Plasma K+ concentration: 4.33 ± 0.14 mmol/L
  Plasma Na+ concentration: 131.4 ± 4.5 mmol/L
  Potassium excretion: 0.72 ± 0.11 µmol/min
  Sodium excretion: 0.63 ± 0.08 µmol/min
  Total solute excretion: 7.16±0.75 µOsm/min
ACE
  stability / conversion to dipeptide in the presence of ACE: transformed rapidly to dipeptide VW

## DRVYIHPFHL [ANG I, angiotensin I]
Human chymase
  half-life time of ANG I (T1/2) in human chymase solution in absence of inhibitory peptides: 16 min
